One molecule from PMC10641814 (Journal of Medicinal Chemistry, 2023) can be followed below.

One assay concerns the target T1, 5-HT3R (Cavia porcellus, UniProt O70212).
T1 construct: from tissue; host or cells: guinea pig ileum
T1 sequence (O70212 20-490): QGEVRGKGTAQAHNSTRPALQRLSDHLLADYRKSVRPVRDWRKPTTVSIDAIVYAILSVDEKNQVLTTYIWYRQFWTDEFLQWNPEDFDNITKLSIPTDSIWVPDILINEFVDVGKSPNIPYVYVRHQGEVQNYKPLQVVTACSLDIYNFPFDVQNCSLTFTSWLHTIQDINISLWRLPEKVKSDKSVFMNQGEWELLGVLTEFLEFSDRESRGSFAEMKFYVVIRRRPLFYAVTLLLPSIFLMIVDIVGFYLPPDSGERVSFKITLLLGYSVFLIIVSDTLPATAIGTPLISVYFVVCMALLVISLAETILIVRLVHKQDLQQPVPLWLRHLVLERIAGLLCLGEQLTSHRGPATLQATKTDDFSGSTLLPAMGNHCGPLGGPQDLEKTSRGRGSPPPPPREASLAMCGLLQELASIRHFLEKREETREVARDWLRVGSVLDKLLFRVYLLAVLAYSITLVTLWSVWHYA
Description: Ex vivo guinea pig ileum contractility, serotonin-induced. The note with it: 15 min incubation.

Assay [1] addresses serotonin transporter SERT (Homo sapiens, UniProt P31645). Description: SERT binding ([3H]-imipramine), Eurofins. From the text:
The results were expressed as the %
www.eurofinsdiscovery.com.

Sequence of serotonin transporter SERT (P31645 whole entry): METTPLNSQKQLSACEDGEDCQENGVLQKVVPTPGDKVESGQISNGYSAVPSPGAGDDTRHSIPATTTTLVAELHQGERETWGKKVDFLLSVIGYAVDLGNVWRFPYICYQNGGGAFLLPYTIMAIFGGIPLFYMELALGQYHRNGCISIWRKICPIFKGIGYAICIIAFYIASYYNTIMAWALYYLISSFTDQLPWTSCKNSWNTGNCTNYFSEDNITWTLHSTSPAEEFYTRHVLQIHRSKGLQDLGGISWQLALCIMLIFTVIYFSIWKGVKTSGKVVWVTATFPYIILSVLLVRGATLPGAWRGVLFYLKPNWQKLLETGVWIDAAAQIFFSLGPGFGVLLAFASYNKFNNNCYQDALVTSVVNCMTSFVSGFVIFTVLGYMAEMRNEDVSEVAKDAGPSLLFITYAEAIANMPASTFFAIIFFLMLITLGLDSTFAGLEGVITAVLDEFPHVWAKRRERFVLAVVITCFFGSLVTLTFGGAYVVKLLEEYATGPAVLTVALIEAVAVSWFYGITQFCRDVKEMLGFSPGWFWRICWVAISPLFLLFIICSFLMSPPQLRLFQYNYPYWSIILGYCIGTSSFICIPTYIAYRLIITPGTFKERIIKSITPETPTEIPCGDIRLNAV

On to `Cl.Clc1cccc(Cn2ccc3c(N4CCNCC4)nc4ccccc4c32)c1` [PZ-1922, 1-(3-Chlorobenzyl)-4-(piperazin-1-yl)-1H-pyrrolo[3,2-c]quinoline Hydrochloride], for which the “pD2' antagonism at 5-HT3R” value at 5-HT3R is 7.32; at 5-HT3R (listed as 16 (PZ1922), 15 min), 7,32. Besides, the inhibition at 1 µM in assay [1] was 1.8%.

By inhibition is commonly meant the change of the read-out against control, counted positive when it falls. Read a high inhibition as strong suppression.
